This is an account of results in patent US20250042916A1 (ACONCAGUA BIO, INC., priority 2023, published 2025).

In general, EC50 refers to the midpoint of the concentration-response curve.

human calcitonin receptor (CTR) and RAMP3 (AMY3) in COS-7 cells, sequence (P30988 25-474): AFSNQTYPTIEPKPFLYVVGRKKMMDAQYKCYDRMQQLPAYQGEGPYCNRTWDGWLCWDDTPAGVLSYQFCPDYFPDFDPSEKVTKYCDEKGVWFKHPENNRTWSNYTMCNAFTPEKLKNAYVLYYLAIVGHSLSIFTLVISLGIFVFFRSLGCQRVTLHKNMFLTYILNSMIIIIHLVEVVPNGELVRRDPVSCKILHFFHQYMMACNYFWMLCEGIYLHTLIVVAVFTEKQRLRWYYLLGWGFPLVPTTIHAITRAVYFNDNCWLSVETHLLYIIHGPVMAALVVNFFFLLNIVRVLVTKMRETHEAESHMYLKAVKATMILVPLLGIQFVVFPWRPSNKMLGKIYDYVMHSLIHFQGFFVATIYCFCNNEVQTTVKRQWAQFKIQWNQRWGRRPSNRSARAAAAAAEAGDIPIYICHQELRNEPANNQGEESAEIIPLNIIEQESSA
human calcitonin receptor (CTR) and RAMP3 (AMY3) in COS-7 cells, sequence (O60896 24-148): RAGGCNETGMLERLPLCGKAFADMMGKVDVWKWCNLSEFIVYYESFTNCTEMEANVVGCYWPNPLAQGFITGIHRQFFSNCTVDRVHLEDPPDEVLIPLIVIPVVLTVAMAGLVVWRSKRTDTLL

The target of this assay is human calcitonin receptor (CTR) and RAMP3 (AMY3) in COS-7 cells (Homo sapiens, UniProt O60896+P30988). In words: Amylin Receptor cAMP Assay I. To be noted: values marked *: Amylin Receptor cAMP Assay I; COS-7/AMY3 cells; read-out: Amylin Receptor cAMP Stimulation Activity: EC50. Format: cell-based. An excerpt:
Amylin Receptor cAMP Assay I
AMYRs are heterodimers of the class B calcitonin (CT) G-protein-coupled receptor (CTR) and receptor activity-modifying proteins (RAMPs). All three RAMPs can interact with the CTR and form AMY1, AMY2, AMY3 with RAMP1, RAMP2 and RAMP3, respectively. Like other class B1 GPCRs, the CT receptor family is canonically coupled to Gs-mediated cAMP production, and measurement of cAMP accumulation has been the primary assay used to determine peptide selectivity and potency.
To optimize functional activity directed toward Gas coupling, COS-7 cells were stably transfected with human calcitonin receptor (CTR) and RAMP3, simultaneously. 100× concentration of compound working solutions were prepared (Agilent Technologies Bravo) with 4-fold serial dilution in 384-well Echo LDV plate (Labcyte, Cat #LP-0200). 100 nL/well 100× concentration of compound working solutions were moved to 384-well white low volume plate (Greiner, Cat #784075) using Labcyte ECHO550. 1×10^5 cells/mL COS-7/CTR or COS-7/AMY3 (HD Biosciences) cell suspensions prepared with assay buffer [DPBS containing 0.5 mM IBMX (Sigma, Cat #15879) and 0.1% BSA (GENVIEW, Cat #FA016-100 g)], 10 μL cell suspensions were added to each well of previous generated assay plate which already contains 100 nL compound at 100× concentration using ThermoFisher Multidrop Combi (1000 cells/well). Seal the plate and incubate at 37° C. with 5% CO2 for 30 min.
After incubation, the cAMP assay signal was generated using cAMP Hi-range Kit (Cisbio). 5 μL cAMP-d2 working solution was added to each well, followed by 5 μL Anti-cAMP antibody-cryptate working solution which was added to each well using ThermoFisher Multidrop Combi. The samples were then incubated at room temperature for 1 hour protected from light. the fluorescence was read at 665 and 615 nm with Reader PerkinElmer EnVision.
With `Cc1nnc(-c2c(CCc3ccc(F)cc3)nc(CC(C)C)c(C(N)=O)c2-c2ccc(C(=O)NCc3ccc(F)c(F)c3)cc2)o1` [Compound 126, 4-(p-{[(3,4-difluorophenyl)methyl]carbamoyl}phenyl)-6-[2-(p-fluorophenyl)ethyl]-2-isobutyl-5-(5-methyl-1,3,4-oxadiazol-2-yl)nicotinamide], the EC50 worked out at 162 nM. For `Cc1nnc(-c2c(CCc3ccc(F)cc3)nc(CC(C)C)c(C(N)=O)c2-c2cc3ccccc3s2)o1` [Compound 127, 4-(1-benzothiophen-2-yl)-6-[2-(p-fluorophenyl)ethyl]-2-isobutyl-5-(5-methyl-1,3,4-oxadiazol-2-yl)nicotinamide], the EC50 is 495 nM. For the molecule `Cc1nnc(-c2c(CCc3ccc(F)cc3)nc(CC(C)C)c(C(N)=O)c2-c2ccc(C(=O)NCc3ccc(F)c(F)c3)o2)o1` [Compound 128, N-(3,4-difluorophenyl)methyl-5-{5-carbamoyl-2-[2-(p-fluorophenyl)ethyl]-6-isobutyl-3-(5-methyl-1,3,4-oxadiazol-2-yl)-4-pyridyl}-2-furamide], the EC50 stood at 162 nM.

On to `Cc1nnc(-c2c(CCc3ccc(F)cc3)nc(CC(C)C)c(C(N)=O)c2-c2cc3cccc(Br)c3s2)o1` [Compound 129, 4-(7-bromo-1-benzothiophen-2-yl)-6-[2-(p-fluorophenyl)ethyl]-2-isobutyl-5-(5-methyl-1,3,4-oxadiazol-2-yl)nicotinamide], for which the EC50 turned out to be 940 nM. As for `Cc1nnc(-c2c(CCc3ccc(F)cc3)nc(CC(C)C)c(C(N)=O)c2-c2cc3ccnc(NCc4ccc(F)c(F)c4)c3o2)o1` [Compound 130, 4-(7-{[(3,4-difluorophenyl)methyl]amino}-1-oxa-6-aza-2-indenyl)-6-[2-(p-fluorophenyl)ethyl]-2-isobutyl-5-(5-methyl-1,3,4-oxadiazol-2-yl)nicotinamide], the EC50 came to 49 nM.

Turning to `Cc1nnc(-c2c(CCc3ccc(F)cc3)nc(CC(C)C)c(C(N)=O)c2-c2cc3ncnc(NCc4ccc(F)c(F)c4)c3s2)o1` [Compound 132, 4-(4-((3,4-difluorobenzyl)amino)thieno[3,2-d]pyrimidin-6-yl)-6-(4-fluorophenethyl)-2-isobutyl-5-(5-methyl-1,3,4-oxadiazol-2-yl)nicotinamide], the EC50 amounted to 2.5 nM. `Cc1nnc(-c2c(CCc3ccc(F)cc3)nc(CC(C)C)c(C(N)=O)c2-c2cc3c(NCc4ccc(F)c(F)c4)nccc3s2)o1` [Compound 133, 4-(4-((3,4-difluorobenzyl)amino)thieno[3,2-c]pyridin-2-yl)-6-(4-fluorophenethyl)-2-isobutyl-5-(5-methyl-1,3,4-oxadiazol-2-yl)nicotinamide]: the EC50 was found to be 6.9 nM. For the molecule `COCC1CN(c2nccc3cc(-c4c(C(N)=O)c(CC(C)C)nc(CCc5ccc(F)cc5)c4-c4nnc(C)o4)sc23)C1` [Compound 134, 6-(4-fluorophenethyl)-2-isobutyl-4-(7-(3-(methoxymethyl)azetidin-1-yl)thieno[2,3-c]pyridin-2-yl)-5-(5-methyl-1,3,4-oxadiazol-2-yl)nicotinamide], the concentration giving a half-maximal response (EC50) is 1160 nM. With `Cc1nnc(-c2c(CCc3ccc(F)cc3)nc(CC(C)C)c(C(N)=O)c2-c2cc3cccc(NCc4ccc(F)c(F)c4)c3s2)o1` [Compound 136, 4-(7-((3,4-difluorobenzyl)amino)benzo[b]thiophen-2-yl)-6-(4-fluorophenethyl)-2-isobutyl-5-(5-methyl-1,3,4-oxadiazol-2-yl)nicotinamide] the figure was 6.7 nM; with `Cc1nnc(-c2c(CCc3ccc(F)cc3)nc(CC(C)C)c(C(N)=O)c2-c2cc3cccc(N[C@@H]4CCc5ccccc54)c3s2)o1` [Compound 137, (R)-4-(7-((2,3-dihydro-1H-inden-1-yl)amino)benzo[b]thiophen-2-yl)-6-(4-fluorophenethyl)-2-isobutyl-5-(5-methyl-1,3,4-oxadiazol-2-yl)nicotinamide], 1.3 nM.
